From US5234925A (Dana-Farber Cancer Institute, Inc., priority 1991, dated 1993)
Where two headings read alike, the source gives them in different places.

Key:
Mouse liver FPGS [1] = biological target: T1, Mouse liver FPGS (Mus musculus, UniProt P48760); settings: relative to folic acid (1.0); cited from earlier work
T1 sequence (P48760 43-587): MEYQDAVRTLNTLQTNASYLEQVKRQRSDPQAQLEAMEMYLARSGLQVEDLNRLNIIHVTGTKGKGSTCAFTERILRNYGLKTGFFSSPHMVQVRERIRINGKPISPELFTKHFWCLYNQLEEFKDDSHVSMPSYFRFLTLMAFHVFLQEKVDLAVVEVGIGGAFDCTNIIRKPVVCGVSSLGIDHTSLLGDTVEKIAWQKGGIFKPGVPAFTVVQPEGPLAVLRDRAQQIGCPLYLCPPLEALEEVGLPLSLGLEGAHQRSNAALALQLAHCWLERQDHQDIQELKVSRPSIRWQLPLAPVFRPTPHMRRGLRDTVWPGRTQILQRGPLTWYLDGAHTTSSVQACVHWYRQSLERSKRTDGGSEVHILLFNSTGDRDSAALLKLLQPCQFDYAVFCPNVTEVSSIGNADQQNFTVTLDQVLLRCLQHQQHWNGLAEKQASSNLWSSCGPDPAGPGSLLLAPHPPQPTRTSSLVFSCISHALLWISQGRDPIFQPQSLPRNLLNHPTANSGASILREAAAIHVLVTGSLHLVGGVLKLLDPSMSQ

L1210 cells [2] = settings: cited from earlier work; for IC50: 48 h, RPMI 1640 with 10% nondialyzed fetal calf serum
L1210 cells [3] = test: Inhibition of growth of L1210 cells in culture; assay type: cell-based, murine; settings: for IC50: Mus musculus, L1210
Procedure: ^d Cells were incubated in RPMI 1640 medium supplemented with 10%
nondialyzed fetal calf serum, and were counted after 48 h of drug
^e The IC50 for cells grown in the presence of 10 μM dThd
increased only to 0.84 μM.
It was therefore of interest to determine whether 2-aza analogues such as 10 also require both dThd and HX for complete protection from their growth inhibitory effect.

L1210 TS [4] = biological target: T2, L1210 TS (Mus musculus, UniProt P07607); test: Inhibition of purified TS from L1210 murine leukemic cells (3H release assay); assay type: biochemical
T2 construct: purified TS from L1210 murine leukemic cells; endogenous in cells; host or cells: L1210 murine leukemic cells (enzyme purified from them)
Procedure: ^b Inhibition of purified TS from L1210 cells was determined by the
^3 Hrelease assay method as described previously (Sikora et al.)

Mouse liver FPGS [5] = biological target: T1, Mouse liver FPGS; test: Substrate activity for partially purified FPGS from mouse liver; assay type: biochemical
Excerpt: ^c Substrate activity for partially purified FPGS from mouse liver wa
determined as described previously (Moran et al., Mol. Pharmacol. 27:156,
1985), with relative Vmax and k' values expressed in comparison with […]

[6] = physiologic pH; cited from earlier work
[7] = compared with reduced folates and MTX; cited from earlier work
[8] = clinical trials; cited from earlier work
L1210 TS [9] = biological target: T2, L1210 TS; settings: cited from earlier work

T2 sequence (P07607 whole entry): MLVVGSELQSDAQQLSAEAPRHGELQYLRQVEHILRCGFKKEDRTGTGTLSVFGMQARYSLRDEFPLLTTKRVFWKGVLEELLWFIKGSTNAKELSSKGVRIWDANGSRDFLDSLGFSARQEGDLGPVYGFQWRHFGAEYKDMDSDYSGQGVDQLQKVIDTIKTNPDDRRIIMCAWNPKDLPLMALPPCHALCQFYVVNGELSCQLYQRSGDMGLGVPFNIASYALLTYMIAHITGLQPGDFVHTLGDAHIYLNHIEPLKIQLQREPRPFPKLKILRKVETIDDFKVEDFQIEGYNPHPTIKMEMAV

In the case of `Nc1nc2ccc(CNc3ccc(C(=O)N[C@@H](CCC(=O)O)C(=O)O)cc3)cc2c(=O)[nH]1` [Compound 1, 5,8-Dideazafolic Acid], the “Vmax (rel), Mouse liver FPGS” value (Mouse liver FPGS [1]) is listed as 1.3, the “k'(rel), Mouse liver FPGS” value (Mouse liver FPGS [1]) is listed as 29 and the IC50 (L1210 cells [2]) is listed as 2700 nM.

With `O=C(O)CC[C@H](NC(=O)c1ccc(NCc2ccc3nn[nH]c(=O)c3c2)cc1)C(=O)O` [Compound 10, N-[4-(1,2,3-Benzotriazin-4(3H)-on-6-yl)methyl] aminobenzoyl-L-glutamic Acid] the “difference in IC50 with and without dThd compared with 1, 2 and 3” value (L1210 cells [3]; L1210 cells) was “comparable to that reported for 1 and 3, but much lower than that reported for 2”, the “potency against cultured cells relative to 2-desamino-5,8-dideazafolate” value (L1210 cells [3]; L1210 cells, 10 versus 3) was “comparable” and the “difference in IC50 with and without dThd” value (L1210 cells [3]; L1210 cells, dThd 0.84 versus 0.42 μM) was “twofold”. For the same molecule, the IC50 (L1210 cells [3]; 10 μM dThd (footnote e), read-out: IC50, L1210 cells grown in the presence of dThd) was 840 nM, the IC50 (L1210 cells [3]; 48 h, RPMI 1640 with 10% nondialyzed fetal calf serum, without dThd, read-out: IC50, L1210 cells) was 420 nM and the “increase in TS binding” value (L1210 TS [4]; 10 versus 2-desamino analogue 3) was “ca. sixfold”. For the same molecule, the Ki (L1210 TS [4]; purified TS from L1210 cells, Table 1) was 330 nM, the “k'(rel) lower than the k'(rel) of 1 or 3” value (Mouse liver FPGS [5]; ratio 10 versus 1 or 3) was 4.6 -fold and the “k'(rel) greater than that for CB3717” value (Mouse liver FPGS [5]; ratio 10 versus CB3717) was “twofold”. For the same molecule, the “Vmax (rel), Mouse liver FPGS” value (Mouse liver FPGS [5]; relative to folic acid (1.0)) was 1.6 and the “k'(rel), Mouse liver FPGS” value (Mouse liver FPGS [5]; relative to folic acid (1.0), Km (app) divided into Vmax (rel)) was 6.3.

For `C#CCN(Cc1ccc2nc(N)[nH]c(=O)c2c1)c1ccc(C(=O)N[C@@H](CCC(=O)O)C(=O)O)cc1` [Compound 2, N^10 -Propargyl-5,8-dideazafolic Acid], the “Vmax (rel), Mouse liver FPGS” value (Mouse liver FPGS [1]) is given as 0.88, the “k'(rel), Mouse liver FPGS” value (Mouse liver FPGS [1]) is given as 2.3 and the “reversal of inhibitory effect on growth of L1210 cells by thymidine plus folinic acid” value (L1210 cells [2]; 5 μM dThd and 5 μM folinic acid) is given as “restored to normal levels”. For the same molecule, the “reversal of inhibitory effect on growth of L1210 cells by thymidine” value (L1210 cells [2]; 10 μM thymidine alone) was “not fully reversed”, the “reversal of inhibitory effect on growth of L1210 cells by thymidine plus hypoxanthine” value (L1210 cells [2]; 10 μM thymidine and 50 μM hypoxanthine) was “restored to normal levels” and the IC50 (L1210 cells [2]) was 3500 nM. The solubility [6] was “low solubility at physiologic pH”, the “transport mechanism of cell entry” value [7] was “distinct from that of reduced folates and MTX” and the “toxicities in clinical use” value [8] was “hepatic and renal toxicities”.

For `O=C(O)CC[C@H](NC(=O)c1ccc(NCc2ccc3nc[nH]c(=O)c3c2)cc1)C(=O)O` [Compound 3, 2-Desamino-5,8-dideazafolic Acid], the Ki (L1210 TS [9]; purified TS from L1210 cells, Table 1, read-out: Ki, L1210 TS) is given as 2000 nM, the Ki (L1210 TS [9]; reported previously (Jackman et al.), read-out: Ki for TS inhibition) is given as 2000 nM and the “Vmax (rel), Mouse liver FPGS” value (Mouse liver FPGS [1]) is given as 1.3. The “k'(rel), Mouse liver FPGS” value (Mouse liver FPGS [1]) was 29 and the IC50 (L1210 cells [2]) was 430 nM.
